Data as given in PubChem BioAssay AID1963437 (Molecular Pharmacology Branch, DTP, NCI, 2024).
Several values for one entry are separate records, joined by “and”; a condition that tells them apart may be missing. Equal values may be shown once.

System: OVCAR-8 complex spheroid, growth inhibition
Assay: Anticancer human tumor OVCAR-8 cell line growth inhibition [Asc];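 further: spheroids exposed to agents for 7 days before readout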;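 on viability, T/C: percent viability relative to DMSO vehicle wells taken as 100%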
Settings: for viability, T/C: stronger effect = lower value
Method: Multicellular complex tumor spheroid response to apoptosis pathway targeting inhibitors Alrizomadlin, Pelcitoclax, and Dasminapant in combination with a variety of drugs and investigational agents in selected tumor cell lines
The MDM2 inhibitor alrizomadlin, the Bcl-2/Bcl-xL inhibitor pelcitoclax, and the IAPs inhibitor dasminapant were evaluated both individually and in combination with standard of care and investigational anticancer small molecules within a complex spheroid model of solid tumors. . Complex spheroids include a stromal component modeled by human endothelial cells (HUVEC) and fibroblasts modeled by human mesenchymal stem cells (MSCs). The concentration ranges selected for each drug and investigational agent were based upon clinically achievable concentrations if the clinical Cmax of the agent was known.
Compounds. The drugs and investigational agents: alrizomadlin (APG-115; NSC831270), pelcitoclax (APG-1252; NSC835773), dasminapant (APG-1387;NSC834197), TAK-243 (NSC785004), copanlisib (NSC809693), olaparib (NSC753686), talazoparib (NSC767125), cobimetinib (NSC 768068), eltanexor (KPT-8602, NSC 794443), abemaciclib (NSC 768073), sotorasib (NSC818433), adagrasib (NSC 831453), MRTX-1133 (NSC 836407), Iadademestat (ORY1001, NSC 806812), and RMC-4630 (NSC839698), were obtained from the NCI Developmental Therapeutics Program Chemical Repository. The FDA-approved anticancer drug set is available from the Developmental Therapeutics Program at https://dtp.cancer.gov/organization/dscb/obtaining/available plates.htm. […] The stock solutions were prepared in dimethyl sulfoxide (DMSO, Sigma-Aldrich, St. Louis, MO, cat. D2650) at 800-fold the tested concentration and stored at -70 degrees C prior to their use. All drugs and investigational agents were tested over a range starting from a high concentration at or near the clinical Cmax and decreasing in half-log increments. If the clinical Cmax for an agent had not been determined, the highest concentration tested was 10 microM.
The patient-derived cancer (PDC) cell lines include five colon adenocarcinomas: 186277-243-T-J2-PDC, 616215-338-R-J1-PDC, 439559-082-T-J2-PDC, 463943-066-T-J2-PDC, and 519858-162-T-J1-PDC; three pancreatic carcinomas: 323965-272-R-J2-PDC, 521955-158-R6-J3-PDC, and 521955-158-R2-J5-PDC; two uterine sarcomas: 327498-152-R-J2-PDC and 993429-296-R-J1-PDC; two rhabdomyosarcomas: 755483-174-R-J1-PDC and 772245-204-R-J1-PDC; two soft tissue sarcomas: 126254-015-R-J1-PDC and 494315-158-R-J1-PDC; two malignant fibrous histiocytomas: 317291-083-R-J1-PDC and 596521-263-R-J1-PDC; two breast carcinomas: 171881-019-R-J1-PDC and 885512-296-R-J2-PDC; and one ovarian carcinoma: 6556581-035-R-J-PDC were obtained from the NCI PDMR, (https://pdmr.cancer.gov). The established cell lines HSSY-2 synovial sarcoma (RRID:CVCL 8719), SYO-1 synovial sarcoma (RRID:CVCL_7146), MPNST malignant peripheral neural sheath tumor were obtained from the Sloan Kettering Institute. The following established cell lines were purchased from the American Type Culture Collection (ATCC, Manassas, VA), Sor the received from the NCI repository:, PANC-1 pancreatic carcinoma (CRL-1469, RRID:CVCL_0480), OVCAR-5 ovarian carcinoma (RRID:CVCL_1628), OVCAR-8 ovarian carcinoma (RRID:CVCL_1629), , MCF-7 breast carcinoma (CRL-12584, RRID:CVCL_0031), MDA-MB-231 breast carcinoma (CRL-12532, RRID:CVCL_0062), NCI-H1876 small cell lung carcinoma (CRL-5902, RRID:CVCL_1503), NCI-H510A small cell lung carcinoma (HTB-184, RRID:CVCL_1565), NCI-H1417 (CRL-5869, RRID:CVCL_1469), and NCI-H196 small cell lung carcinoma (CRL-5823, RRID:CVCL_1509). Dr. Peter Houghton (Greehey Children's Cancer Research Institute, University of Texas Health Science Center, San Antonio, TX) provided Rh-18 rhabdomyosarcoma (RRID:CVCL_1659). Pooled donor human umbilical vein endothelial cells (HUVEC, Lonza, cat. CC-2519) and human mesenchymal stem cells (hMSC, Lonza, cat. PT-2501) were purchased from Lonza (Walkersville, MD).
Cell Culture. […]

[1] = compound alone, run of 11/07/2022

C#Cc1c(F)ccc2cc(O)cc(-c3ncc4c(N5CC6CCC(C5)N6)nc(OCC56CCCN5CC(F)C6)nc4c3F)c12 (stereo unspecified)
viability, T/C (compound 0.0316 µM): 110% and 90.4% and 96.5% | viability, T/C (compound 0.1 µM): 95.6% and 80.1% and 97.5% | viability, T/C (compound 0.316 µM): 101% and 110% and 87% | viability, T/C (compound 1 µM): 110% and 94.2% and 95% | viability, T/C (compound 3.16 µM): 93.7% and 83.9% and 94.7% | viability, T/C (compound 10 µM): 116% and 98.9% and 85.9% | IC50 (curve of compound): > 10000 nM

C=C(F)C(=O)N1CCN(c2nc(OCC3CCCN3C)nc3c2CCN(c2cccc4cccc(Cl)c24)C3)CC1CC#N (stereo unspecified)
viability, T/C (compound 0.0316 µM): 107% (2×) and 96.3% | viability, T/C (compound 0.1 µM): 113% and 98.5% and 93.6% | viability, T/C (compound 0.316 µM): 109% and 84.2% and 106% | viability, T/C (compound 1 µM): 101% and 105% and 104% | viability, T/C (compound 3.16 µM): 25.7% and 39.4% and 37.9% | viability, T/C (compound 10 µM): 0.33% and 0.7% and 1.79% | IC50 (curve of compound): 2190 nM and 2550 nM and 2560 nM

C=CC(=O)N1CCN(c2nc(=O)n(-c3c(C)ccnc3C(C)C)c3nc(-c4c(O)cccc4F)c(F)cc23)C(C)C1 (stereo unspecified)
viability, T/C (compound 0.0316 µM): 106% and 97.9% and 94.2% | viability, T/C (compound 0.1 µM): 102% and 109% and 80.9% | viability, T/C (compound 0.316 µM): 84.7% and 95.3% and 101% | viability, T/C (compound 1 µM): 98.6% and 95.9% and 99.3% | viability, T/C (compound 3.16 µM): 86.1% and 102% and 101% | viability, T/C (compound 10 µM): 108% and 99.7% and 96.6% | IC50 (curve of compound): > 10000 nM

CCN1C(C(=O)NC23CCC(C(=O)O)(CC2)CC3)C(c2cccc(Cl)c2F)C2(C(=O)Nc3cc(Cl)ccc32)C12CCCCC2 (stereo unspecified)
viability, T/C (compound 0.03 µM): 93.4% [middle of 9 runs] | viability, T/C (compound 0.949 µM): 100% [middle of 9 runs] | viability, T/C (compound 3 µM): 104% [middle of 9 runs] | IC50 [1]: > 3000 nM | IC50 (curve of compound): > 3000 nM

CCN1CCN(Cc2ccc(Nc3ncc(F)c(-c4cc(F)c5nc(C)n(C(C)C)c5c4)n3)nc2)CC1
viability, T/C (compound 0.00316 µM): 81.5% and 87.7% and 87.9% | viability, T/C (compound 0.01 µM): 101% and 93.5% and 90.3% | viability, T/C (compound 0.0316 µM): 93.1% and 93.5% and 107% | viability, T/C (compound 0.1 µM): 104% and 84.9% and 103% | viability, T/C (compound 0.316 µM): 98.6% and 100% and 98.5% | viability, T/C (compound 1 µM): 125% and 105% and 129% | IC50 (curve of compound): > 1000 nM

CNC(C)C(=O)NC1CN(S(=O)(=O)c2cccc(S(=O)(=O)N3CCC4CCC(C(=O)NC(c5ccccc5)c5ccccc5)N4C(=O)C(NC(=O)C(C)NC)C3)c2)CCC2CCC(C(=O)NC(c3ccccc3)c3ccccc3)N2C1=O (stereo unspecified)
IC50 (curve of compound): > 1000 nM

COc1c(OCCCN2CCOCC2)ccc2c3n(c(=NC(=O)c4cnc(N)nc4)nc12)CCN3
viability, T/C (compound 0.00316 µM): 98.2% and 94.8% and 108% | viability, T/C (compound 0.01 µM): 111% and 110% and 109% | viability, T/C (compound 0.0316 µM): 120% and 123% and 130% | viability, T/C (compound 0.1 µM): 167% and 133% and 157% | viability, T/C (compound 0.316 µM): 134% and 141% and 143% | viability, T/C (compound 1 µM): 77% and 89.5% and 94.5% | IC50 (curve of compound): > 1000 nM

Cc1c(S(C)(=O)=O)c(-c2cc(F)cc(N3CCN(c4ccc(NS(=O)(=O)c5ccc(NC(CCN6CCC(C(=O)OCCCP(=O)(O)O)CC6)CSc6ccccc6)c(S(=O)(=O)C(F)(F)F)c5)cc4)CC3)c2)c(-c2ccc(Cl)cc2)n1C(C)C (stereo unspecified)
viability, T/C (compound 0.0316 µM): 91.2% [middle of 7 runs] | viability, T/C (compound 0.1 µM): 94% [middle of 7 runs] | viability, T/C (compound 1 µM): 98.1% [middle of 7 runs] | viability, T/C (compound 3.16 µM): 104% [middle of 7 runs] | IC50 [1]: > 10000 nM

Cc1nc(N2CCC3(CC2)COC(C)C3N)c(CO)nc1Sc1ccnc(N)c1Cl (stereo unspecified)
viability, T/C (compound 0.00949 µM): 111% and 101% and 103% | viability, T/C (compound 0.03 µM): 121% and 112% and 102% | viability, T/C (compound 0.0949 µM): 195% and 147% and 149% | viability, T/C (compound 0.3 µM): 239% and 173% and 192% | viability, T/C (compound 0.949 µM): 261% and 212% and 243% | viability, T/C (compound 3 µM): 261% and 201% and 223% | IC50 (curve of compound): > 3000 nM

Cn1ncnc1[C@H]1c2n[nH]c(=O)c3cc(F)cc(c23)N[C@@H]1c1ccc(F)cc1
viability, T/C (compound 0.000316 µM): 92.4% and 93.5% and 99.5% | viability, T/C (compound 0.001 µM): 94.9% and 97.8% and 88.9% | viability, T/C (compound 0.00316 µM): 95.5% and 93.6% and 106% | viability, T/C (compound 0.01 µM): 114% and 102% and 109% | viability, T/C (compound 0.0316 µM): 115% and 117% and 105% | viability, T/C (compound 0.1 µM): 132% and 102% and 125% | IC50 (curve of compound): > 100 nM

NC(=O)C(=Cn1cnc(-c2cc(C(F)(F)F)cc(C(F)(F)F)c2)n1)c1cncnc1
viability, T/C (compound 0.000949 µM): 100% and 101% and 69.2% | viability, T/C (compound 0.003 µM): 90% and 81.8% and 98.6% | viability, T/C (compound 0.00949 µM): 99.8% and 91.2% and 111% | viability, T/C (compound 0.03 µM): 95.4% and 109% and 92.8% | IC50 (curve of compound): > 300 nM and 54.1 nM

NC1CCC(NC2CC2c2ccccc2)CC1 (stereo unspecified)
viability, T/C (compound 0.000316 µM): 94.7% and 96.7% and 105% | viability, T/C (compound 0.001 µM): 87.7% and 82.6% and 99.8% | viability, T/C (compound 0.00316 µM): 83.1% and 85.2% and 104% | viability, T/C (compound 0.01 µM): 104% and 81.5% and 119% | viability, T/C (compound 0.0316 µM): 113% and 98.7% and 95% | viability, T/C (compound 0.1 µM): 83% and 91.6% and 115% | IC50 (curve of compound): > 100 nM

O=C(c1cc(Cc2n[nH]c(=O)c3ccccc23)ccc1F)N1CCN(C(=O)C2CC2)CC1
viability, T/C (compound 0.0316 µM): 105% and 97.4% and 98.4% | viability, T/C (compound 0.1 µM): 103% (2×) and 97.7% | viability, T/C (compound 0.316 µM): 99% and 82.4% and 107% | viability, T/C (compound 1 µM): 117% and 95.4% and 121% | viability, T/C (compound 3.16 µM): 134% and 104% and 110% | viability, T/C (compound 10 µM): 116% and 122% and 95.5% | IC50 (curve of compound): > 10000 nM

O=C(c1ccc(F)c(F)c1Nc1ccc(I)cc1F)N1CC(O)([C@@H]2CCCCN2)C1
viability, T/C (compound 0.00316 µM): 95.4% and 98.1% and 96.1% | viability, T/C (compound 0.01 µM): 122% and 101% and 111% | viability, T/C (compound 0.0316 µM): 138% and 165% and 133% | viability, T/C (compound 0.1 µM): 153% and 165% and 190% | viability, T/C (compound 0.316 µM): 210% and 216% and 228% | viability, T/C (compound 1 µM): 107% and 80.8% and 86.8% | IC50 (curve of compound): > 1000 nM
